Test systems include NCI-H23; UACC-257; RPMI-8226; COLO 205; NCI-H460; HL-60; SW-620; IGROV-1; HCT-15; SF-539; OVCAR-8; SK-MEL-28; CCRF-CEM; SR; NCI-H226; UO-31; SK-MEL-5; SNB-75; CAKI-1.
Common to all, as to test: NCI-60 cell line screen, 48 h

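Growth conditions: 96-well plates. Treatment: test compound, 48 hours, 5 concentrations. Analysis: linear interpolation between bracketing concentrations; unreached endpoints set to highest concentration. Abbreviation: GI50, concentration required for 50% inhibition of growth.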 Calls of active or inactive are those of the source. No stated cut-off is given here; in the data, active = GI50 up to about 1.1 µM and inactive = higher. Some results are limits rather than exact numbers.

Turning to `N#CCCOCN(CO)c1nc(N(CO)COCCC#N)nc(N(CO)COCCC#N)n1`, the GI50 in the assay on NCI-H23 was 31.2 µM (inactive); with UACC-257, 28 µM (inactive); in the assay on RPMI-8226, 22.5 µM (inactive); with COLO 205 it was 18.4 µM (inactive); with NCI-H460 it was 29.7 µM (inactive); in the assay with HL-60, 17.7 µM (inactive). Also, the GI50 is 16.1 µM (inactive) in the assay on SW-620; > 100 µM (inactive) in the assay on IGROV-1; 18.2 µM in the assay on HCT-15; 2.5 µM (inactive) in the assay with SF-539; 15.8 µM (inactive) with OVCAR-8; 20.7 µM (inactive) in the assay on SK-MEL-28. The GI50 in the assay on CCRF-CEM was 23.6 µM (inactive); in the assay with SR it was 17.3 µM (inactive); in the assay with NCI-H226, 22.7 µM (inactive); in the assay with UO-31 it was 21.7 µM (inactive).
For `CCCCc1c2c(nc3c1CCC/C3=C\c1ccccc1)C(=O)CCC2`, the GI50 is 24.2 µM (inactive) with NCI-H23; 17 µM (inactive) in the assay with UACC-257; 13.7 µM (inactive) with RPMI-8226; 22.8 µM (inactive) in the assay on COLO 205; 34.2 µM (inactive) in the assay with NCI-H460; 22.2 µM (inactive) with HL-60. For the same compound, the GI50 was 22 µM (inactive) in the assay with SW-620; 18.6 µM (inactive) in the assay on IGROV-1; 21.8 µM with HCT-15; 18.4 µM (inactive) in the assay with SF-539; 16.3 µM (inactive) in the assay on SK-MEL-5; 24.5 µM (inactive) with OVCAR-8. In addition, the GI50 in the assay on SK-MEL-28 was 19.8 µM (inactive); with CCRF-CEM, 17.4 µM (inactive); with SR, 7.24 µM (inactive); with SNB-75, 29.1 µM (inactive); in the assay with NCI-H226, 18.4 µM (inactive); in the assay on UO-31, 24.5 µM (inactive).
As to `Cc1cc2c(C)nn(Cc3ccc(Cl)cc3)c2c(C#N)c1C`, the GI50 in the assay with NCI-H23, with UACC-257, in the assay on RPMI-8226, in the assay with COLO 205, with HL-60 and in the assay with SW-620 was > 100 µM (inactive) each time. For the same compound, the GI50 in the assay on IGROV-1 is > 100 µM (inactive); with HCT-15, above 100 µM; with SF-539, > 100 µM (inactive); in the assay with OVCAR-8, > 100 µM (inactive); with SK-MEL-28, > 100 µM (inactive); in the assay with CCRF-CEM, > 100 µM (inactive). The GI50 with SR, in the assay on NCI-H226 and in the assay with UO-31 was > 100 µM (inactive) in each case.
With `c1cncc(CSc2nc3ccccc3nc2-c2cccs2)c1`, the GI50 in the assay on NCI-H23 was > 100 µM (inactive); in the assay on UACC-257, > 100 µM (inactive); in the assay with RPMI-8226 it was 32.8 µM (inactive); in the assay with COLO 205, > 100 µM (inactive); in the assay on NCI-H460 it was 56 µM (inactive); with HL-60, 13 µM (inactive). Also, the GI50 in the assay with SW-620 is 91.4 µM (inactive); with HCT-15 it was 81.1 µM; in the assay on CAKI-1, > 10 µM (inactive); with SF-539, 71.8 µM (inactive); in the assay on SK-MEL-5, > 100 µM (inactive); in the assay with OVCAR-8 it was 83.9 µM (inactive). The GI50 is > 100 µM (inactive) with SK-MEL-28; 30.6 µM (inactive) in the assay on CCRF-CEM; 40.9 µM (inactive) with SR; > 100 µM (inactive) in the assay on SNB-75; 70 µM (inactive) in the assay on NCI-H226; 36.4 µM (inactive) in the assay on UO-31.
In the case of `Cc1cc(Br)ccc1/N=N/C1C(=O)ON=C1c1ccccc1` (stereo not given), the GI50 in the assay with NCI-H23 is > 100 µM (inactive); with UACC-257, > 100 µM (inactive); with RPMI-8226, 28.4 µM (inactive); in the assay with COLO 205, 16 µM (inactive); in the assay on NCI-H460, 55 µM (inactive); in the assay on HL-60 it was 32.1 µM (inactive). In addition, the GI50 in the assay with SW-620 is > 100 µM (inactive); with IGROV-1, > 100 µM (inactive); in the assay on SF-539, > 100 µM (inactive); with SK-MEL-5, 53.5 µM (inactive); in the assay on OVCAR-8, > 100 µM (inactive); in the assay with SK-MEL-28 it was > 100 µM (inactive). In addition, the GI50 in the assay on SR is 48 µM (inactive); in the assay with SNB-75, > 100 µM (inactive); in the assay with NCI-H226 it was > 100 µM (inactive); with UO-31 it was 46.9 µM (inactive).
Take `COC(=O)C(/C(=N/NC(N)=O)C(=O)Nc1c(C)cccc1C(C)(C)C)c1nc2ccc(Cl)cc2nc1O` (stereo not given): the GI50 in the assay with NCI-H23, in the assay with UACC-257, in the assay with RPMI-8226, in the assay on NCI-H460, with HL-60 and with SW-620 was > 100 µM (inactive) each time. In addition, the GI50 in the assay on IGROV-1 was > 100 µM (inactive); in the assay on HCT-15, above 100 µM; in the assay on CAKI-1, > 100 µM (inactive); in the assay on SF-539, > 100 µM (inactive); with SK-MEL-5, > 100 µM (inactive); with OVCAR-8 it was > 100 µM (inactive). The GI50 in the assay on SK-MEL-28 is > 100 µM (inactive); with CCRF-CEM, > 100 µM (inactive); with SR it was 37.5 µM (inactive); in the assay with SNB-75 it was > 100 µM (inactive); with NCI-H226, > 100 µM (inactive); with UO-31, > 100 µM (inactive).
With `COc1ccc(NC(=O)CCc2cc(-c3ccc(O)c(OC)c3)nc(NC#N)n2)cc1`, the GI50 in the assay with NCI-H23, in the assay with UACC-257, with COLO 205, with NCI-H460, with HL-60 and with SW-620 was > 100 µM (inactive) in each case. In addition, the GI50 in the assay on IGROV-1 was > 100 µM (inactive); in the assay on HCT-15, above 100 µM; with CAKI-1, > 100 µM (inactive); in the assay on SF-539, > 100 µM (inactive); in the assay with OVCAR-8 it was > 100 µM (inactive); in the assay with SK-MEL-28 it was > 100 µM (inactive). Besides, the GI50 in the assay on CCRF-CEM, in the assay on SR, in the assay on NCI-H226 and in the assay with UO-31 was > 100 µM (inactive) in each case.
For the compound `CS(=O)(=O)C1(Br)S(=O)(=O)OCCOS1(=O)=O`, the GI50 in the assay on NCI-H23, with UACC-257, with RPMI-8226, with COLO 205, with NCI-H460 and in the assay with HL-60 was > 100 µM (inactive) each time. Moreover, the GI50 was > 100 µM (inactive) with SW-620; > 100 µM (inactive) in the assay with IGROV-1; above 100 µM with HCT-15; > 100 µM (inactive) in the assay with SF-539; > 100 µM (inactive) with SK-MEL-5; > 100 µM (inactive) in the assay on OVCAR-8. Moreover, the GI50 in the assay on SK-MEL-28, in the assay with CCRF-CEM, in the assay with SR, in the assay on SNB-75, in the assay on NCI-H226 and with UO-31 was > 100 µM (inactive) in each case.
Consider `CSc1nc2nccnc2c(=O)[nH]1`, for which the GI50 in the assay with NCI-H23, with UACC-257, with RPMI-8226, in the assay on COLO 205, with NCI-H460 and in the assay with HL-60 was > 100 µM (inactive) each time. Also, the GI50 is > 100 µM (inactive) in the assay with SW-620; > 100 µM (inactive) in the assay on IGROV-1; above 100 µM in the assay with HCT-15; > 100 µM (inactive) in the assay on CAKI-1; > 100 µM (inactive) in the assay on SK-MEL-5; > 100 µM (inactive) in the assay with OVCAR-8. The GI50 with SK-MEL-28, in the assay with CCRF-CEM, with SR, in the assay on SNB-75, with NCI-H226 and with UO-31 was > 100 µM (inactive) in each case.
As for `COc1ccc(-c2oc(/C=N/c3ccccc3)c([N+](=O)[O-])c2-c2ccc(OC)c(OC)c2)cc1OC`, the GI50 in the assay with NCI-H23, in the assay with UACC-257, in the assay on RPMI-8226, in the assay on COLO 205, in the assay with NCI-H460 and in the assay on HL-60 was > 100 µM (inactive) in each case. Besides, the GI50 was > 100 µM (inactive) with SW-620; > 100 µM (inactive) in the assay with IGROV-1; above 100 µM in the assay on HCT-15; > 100 µM (inactive) in the assay on CAKI-1; > 100 µM (inactive) in the assay on SF-539; > 100 µM (inactive) in the assay with SK-MEL-5. The GI50 with OVCAR-8, with SK-MEL-28, in the assay with SR, in the assay with SNB-75, in the assay on NCI-H226 and in the assay on UO-31 was > 100 µM (inactive) in each case.
Take `CCN(/N=C1\CC2C=CCN(C2)C(=O)Cc2c1[nH]c1ccccc21)S(=O)(=O)c1ccc(C)cc1` (stereo not given): the GI50 was 87.5 µM (inactive) in the assay on NCI-H23; 94.2 µM (inactive) in the assay on UACC-257; 63.1 µM (inactive) with RPMI-8226; 68.2 µM (inactive) in the assay with COLO 205; 73.1 µM (inactive) with HL-60; 78 µM (inactive) in the assay on SW-620. In addition, the GI50 in the assay with IGROV-1 was 68.4 µM (inactive); in the assay with HCT-15 it was 85.9 µM; in the assay on CAKI-1, 25.4 µM (inactive); in the assay on SF-539 it was > 100 µM (inactive); with SK-MEL-5 it was 56.6 µM (inactive); with OVCAR-8, 78 µM (inactive). The GI50 is > 100 µM (inactive) in the assay with CCRF-CEM; 64.4 µM (inactive) with SR; 35.6 µM (inactive) with SNB-75; 14.6 µM (inactive) with NCI-H226; 39.4 µM (inactive) in the assay with UO-31.
In the case of `O=[N+]([O-])C1C2C=CC(C2)[C@H]1c1ccco1` (stereo not given in full), the GI50 with NCI-H23 was 0.384 µM (active); in the assay with UACC-257 it was > 100 µM (inactive); in the assay on COLO 205 it was > 100 µM (inactive); with NCI-H460 it was > 100 µM (inactive); in the assay with HL-60 it was > 100 µM (inactive); in the assay with SW-620, > 100 µM (inactive). Also, the GI50 in the assay on IGROV-1 was > 100 µM (inactive); in the assay with HCT-15, above 100 µM; in the assay with CAKI-1, > 100 µM (inactive); in the assay on SF-539, > 100 µM (inactive); in the assay with SK-MEL-5, > 100 µM (inactive); in the assay with OVCAR-8 it was > 100 µM (inactive). The GI50 in the assay on CCRF-CEM, in the assay with SR, with SNB-75, with NCI-H226 and in the assay with UO-31 was > 100 µM (inactive) each time.

The values are drawn from ChEMBL document CHEMBL1201862, “PubChem BioAssay data set” (2004).
